Laboratory results taken from patent US20240409556A1, “BENZOPIPERAZINE AND RELATED ANALOGS FOR INHIBITING YAP/TAZ-TEAD” (Springworks Therapeutics, Inc., priority 2023, published 2024).

What was measured:
Type in all cases: cell-based
[1] = system: NCI-H2052 mesothelioma cell line; assay: Mesothelioma cell line proliferation assay, NCI-H2052 (ATPlite); conditions: NCI-H2052 cells, 6 days with compound, cell viability by ATPlite
Experimental: (§1) Example 57: Activity of Compounds of the Disclosure in Mesothelioma Cell Line Proliferation Assays
(§2) Mesothelioma cell lines, NCI-H226 and NCI-H2052 (both sourced from the ATCC cell culture collection) were plated in 96-well plates (Corning® 96 Well White Polystyrene Microplate clear flat bottom, white polystyrene (TC-Treated)), at 1500 cells/well in full medium (RPMI 1640 ATCC modification with L-glutamine, HEPES, Phenol Red, Sodium Pyruvate, High glucose, Low sodium bicarbonate and 10% fetal bovine serum). Cells were incubated overnight at 37° C. in an incubator with 5% CO2. Then compounds, dissolved in DMSO, were added in dose-response. Cells were incubated with compound dilutions for another 6 days at 37° C. in an incubator with 5% CO2. Cell viability was quantitated using the ATPlite kit (Perkin-Elmer) and the luminescence was read-out using an Envision instrument (Perkin-Elmer). The amount of relative light units produced using the ATPlite kit was used to calculate percent of inhibition.
(§3) The activities of some example compounds are depicted in Table 4. The activity ranges A, B and C refer to EC50 values in the mesothelioma cell line proliferation assay as described as follows: “A”: EC50<1 μM; “B”: 1 μM≤EC50≤10 μM and “C”: EC50>10 μM; NT: not tested.

[2] = system: YAP/TAZ-TEAD transcription; assay: Reporter gene assay for measuring the inhibition of YAP/TAZ-TEAD transcription (TEAD-responsive element luciferase reporter in Hek293T cells); conditions: 24 hours incubation
Outline: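 HEK293T cells transiently transfected with a TEAD-responsive luciferase reporter were exposed to compounds for 24 h at 37° C/5% CO2, then luminescence was read. Percent inhibition normalised to vehicle (0%) and positive-control inhibitor (100%); IC50 derived.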

[3] = system: NCI-H226 mesothelioma cell line; assay: Mesothelioma cell line proliferation assay, NCI-H226 (ATPlite); conditions: NCI-H226 cells, 6 days with compound, cell viability by ATPlite
Experimental: as §1, §2, §3

C=CC(=O)N1CCN2c3ccccc3N(c3ccc(C(F)(F)F)cc3)CC2C1 (single isomer, unassigned) [14-En2, (R)- or (S)-1-(6-(4-(trifluoromethyl)phenyl)-1,2,4,4a,5,6-hexahydro-3H-pyrazino[1,2-a]quinoxalin-3-yl)prop-2-en-1-one]
< 1000 nM: EC50 [1] | IC50 [2] | EC50 [3]

CC(=O)N1CCN2c3ccccc3N(c3ccc(C(F)(F)F)cc3)CC2C1 (single isomer, unassigned) [15-En2, (R)- or (S)-1-(6-(4-(trifluoromethyl)phenyl)-1,2,4,4a,5,6-hexahydro-3H-pyrazino[1,2-a]quinoxalin-3-yl)ethan-1-one]
< 1000 nM: EC50 [1] | IC50 [2] | EC50 [3]

C=CC(=O)NCC1CN(c2ccc(C(F)(F)F)cc2)c2cccnc2N1C (single isomer, unassigned) [27-En1]
< 1000 nM: EC50 ([1]; Homo sapiens, 144 h) | IC50 ([2]; Homo sapiens, HEK-293T, 24 h) | EC50 ([3]; Homo sapiens, 144 h)

C=CC(=O)NCC1CN(c2ccc(C(F)(F)F)cc2)c2cccnc2N1C (single isomer, unassigned) [27-En2]
< 1000 nM: EC50 [1] | IC50 [2] | EC50 [3]

CC(=O)N1CCN2c3ncccc3N(c3ccc(C(F)(F)F)cc3)CC2C1 (single isomer, unassigned) [29-En1, (R)- or (S)-1-(5-(4-(trifluoromethyl)phenyl)-5,6,6a,7,9,10-hexahydro-8H-pyrazino[1,2-a]pyrido[3,2-e]pyrazin-8-yl)ethan-1-one]
< 1000 nM: EC50 ([1]; Homo sapiens, 144 h) | IC50 ([2]; Homo sapiens, HEK-293T, 24 h) | EC50 ([3]; Homo sapiens, 144 h)

CC(=O)N1CCN2c3nccnc3N(c3ccc(C(F)(F)F)cc3)CC2C1 (single isomer, unassigned) [40-En1, (R)- or (S)-1-(5-(4-(trifluoromethyl)phenyl)-5,6,6a,7,9,10-hexahydro-8H-dipyrazino[1,2-a:2′,3′-e]pyrazin-8-yl)ethan-1-one]
< 1000 nM: EC50 ([1]; Homo sapiens, 144 h) | IC50 [2] | EC50 ([3]; Homo sapiens, 144 h)

CNS(=O)(=O)N1CCN2c3ncccc3N(c3ccc(C(F)(F)F)cc3)CC2C1 (single isomer, unassigned) [45-En2, (R)- or (S)-N-methyl-5-(4-(trifluoromethyl)phenyl)-5,6,6a,7,9,10-hexahydro-8H-pyrazino[1,2-a]pyrido[3,2-e]pyrazine-8-sulfonamide]
< 1000 nM: EC50 ([1]; Homo sapiens, 144 h) | IC50 [2] | EC50 ([3]; Homo sapiens, 144 h)

CC(C)C(=O)N1CCN2c3ncccc3N(c3ccc(C(F)(F)F)cc3)CC2C1 (single isomer, unassigned) [47-En1, (R)- or (S)-2-methyl-1-(5-(4-(trifluoromethyl)phenyl)-5,6,6a,7,9,10-hexahydro-8H-pyrazino[1,2-a]pyrido[3,2-e]pyrazin-8-yl)propan-1-one]
< 1000 nM: EC50 ([1]; Homo sapiens, 144 h) | IC50 [2] | EC50 ([3]; Homo sapiens, 144 h)

CC(=O)NCC1CN(c2ccc(C(F)(F)F)cc2)c2cccnc2O1 (single isomer, unassigned) [49-En1, (R)- or (S)-N-((1-(4-(trifluoromethyl)phenyl)-2,3-dihydro-1H-pyrido[2,3-b][1,4]oxazin-3-yl)methyl)acetamide]
< 1000 nM: EC50 ([1]; Homo sapiens, 144 h) | IC50 [2] | EC50 ([3]; Homo sapiens, 144 h)

CNC(=O)N1CCN2c3ncccc3N(c3ccc(C(F)(F)F)cc3)CC2C1 (single isomer, unassigned) [52-En2, (R)- or (S)-N-methyl-5-(4-(trifluoromethyl)phenyl)-5,6,6a,7,9,10-hexahydro-8H-pyrazino[1,2-a]pyrido[3,2-e]pyrazine-8-carboxamide]
< 1000 nM: EC50 ([1]; Homo sapiens, 144 h) | IC50 [2] | EC50 ([3]; Homo sapiens, 144 h)

CC(=O)NCC1CN(c2ccc(C(F)(F)F)cc2)c2cc(Cl)cnc2O1 (single isomer, unassigned) [75-En2, (R)- or (S)-N-((7-chloro-1-(4-(trifluoromethyl)phenyl)-2,3-dihydro-1H-pyrido[2,3-b][1,4]oxazin-3-yl)methyl)acetamide]
< 1000 nM: EC50 ([1]; Homo sapiens, 144 h) | IC50 [2] | EC50 ([3]; Homo sapiens, 144 h)

CC(=O)NCC1CN(c2ccc(C(F)(F)F)cc2)c2ccc(C)nc2O1 (single isomer, unassigned) [77-En1, (R)- or (S)-N-((6-methyl-1-(4-(trifluoromethyl)phenyl)-2,3-dihydro-1H-pyrido[2,3-b][1,4]oxazin-3-yl)methyl)acetamide]
< 1000 nM: EC50 ([1]; Homo sapiens, 144 h) | IC50 [2] | EC50 ([3]; Homo sapiens, 144 h)

CC(=O)NCC1CN(c2ccc(C(F)(F)F)cc2)c2ccc(C3CC3)nc2O1 (single isomer, unassigned) [81-En1, (R)- or (S)-N-((6-cyclopropyl-1-(4-(trifluoromethyl)phenyl)-2,3-dihydro-1H-pyrido[2,3-b][1,4]oxazin-3-yl)methyl)acetamide]
< 1000 nM: EC50 ([1]; Homo sapiens, 144 h) | IC50 ([2]; Homo sapiens, HEK-293T, 24 h) | EC50 ([3]; Homo sapiens, 144 h)

CC(=O)NCC1CN(c2ccc(C(F)(F)F)cc2)c2ccc(N(C)C)nc2O1 (single isomer, unassigned) [87-En1, (R)- or (S)-N-((6-(dimethylamino)-1-(4-(trifluoromethyl)phenyl)-2,3-dihydro-1H-pyrido[2,3-b][1,4]oxazin-3-yl)methyl)acetamide]
< 1000 nM: EC50 ([1]; Homo sapiens, 144 h) | IC50 [2] | EC50 ([3]; Homo sapiens, 144 h)

C=CC(=O)NC[C@H]1CN(c2ccc(C(F)(F)F)cc2)c2cccnc2N1 [38-En1, (S)—N-((1-(4-(trifluoromethyl)phenyl)-1,2,3,4-tetrahydropyrido[2,3-b]pyrazin-3-yl)methyl)acrylamide]
< 1000 nM: EC50 ([1]; Homo sapiens, 144 h) | IC50 ([2]; Homo sapiens, HEK-293T, 24 h) | EC50 ([3]; Homo sapiens, 144 h)

C=CC(=O)NC[C@@H]1CN(c2ccc(C(F)(F)F)cc2)c2cccnc2N1 [38-En2, (R)-N-((1-(4-(trifluoromethyl)phenyl)-1,2,3,4-tetrahydropyrido[2,3-b]pyrazin-3-yl)methyl)acrylamide]
< 1000 nM: EC50 ([1]; Homo sapiens, 144 h) | IC50 ([2]; Homo sapiens, HEK-293T, 24 h) | EC50 ([3]; Homo sapiens, 144 h)

CC(=O)N1CCN2c3ncccc3N(c3ccc(C(F)(F)F)cn3)CC2C1 (stereo not drawn) [53-En1, 1-(5-(5-(trifluoromethyl)pyridin-2-yl)-5,6,6a,7,9,10-hexahydro-8H-pyrazino[1,2-a]pyrido[3,2-e]pyrazin-8-yl)ethan-1-one]
< 1000 nM: EC50 ([1]; Homo sapiens, 144 h) | IC50 [2] | EC50 ([3]; Homo sapiens, 144 h)

Cc1ccc2c(n1)N1CCC(C(=O)O)CC1CN2c1ccc(C(F)(F)F)cc1 [101-D2, (6aS,8S)— or (6aR,8S)— or (6aR,8R)— or (6aS,8R)-2-methyl-5-(4-(trifluoromethyl)phenyl)-6,6a,7,8,9,10-hexahydro-5H-dipyrido[1,2-a:3′,2′-e]pyrazine-8-carboxylic acid]
< 1000 nM: EC50 ([1]; Homo sapiens, 144 h) | IC50 [2] | EC50 ([3]; Homo sapiens, 144 h)

Cc1ccc2c(n1)N1CCC(C(=O)O)CC1CN2c1ccc(C(F)(F)F)cc1 [101-D4, (6aS,8S)— or (6aR,8S)— or (6aR,8R)— or (6aS,8R)-2-methyl-5-(4-(trifluoromethyl)phenyl)-6,6a,7,8,9,10-hexahydro-5H-dipyrido[1,2-a:3′,2′-e]pyrazine-8-carboxylic acid]
< 1000 nM: EC50 [1] | IC50 [2] | EC50 [3]

O=C(NO)C1CCN2c3ccccc3N(c3ccc(C(F)(F)F)cc3)CC2C1 [116B-En2, (6aS,8S)- or (6aR,8S)- or (6aR,8R)- or (6aS,8R)-N-hydroxy-5-(4-(trifluoromethyl)phenyl)-6,6a,7,8,9,10-hexahydro-5H-pyrido[1,2-a]quinoxaline-8-carboxamide]
< 1000 nM: EC50 ([1]; Homo sapiens, 144 h) | IC50 [2] | EC50 ([3]; Homo sapiens, 144 h)

NC(=O)C1CCN2c3ccccc3N(c3ccc(C(F)(F)F)cc3)CC2C1 (stereo not drawn) [117B-En2, (cis)- or (trans)-5-(4-(trifluoromethyl)phenyl)-6,6a,7,8,9,10-hexahydro-5H-pyrido[1,2-a]quinoxaline-8-carboxamide]
< 1000 nM: EC50 ([1]; Homo sapiens, 144 h) | IC50 [2] | EC50 ([3]; Homo sapiens, 144 h)

O=C(O)C1(F)CCN2c3ccccc3N(c3ccc(C(F)(F)F)cc3)CC2C1 [123-D1, (6aS,8S)- or (6aR,8S)- or (6aR,8R)- or (6aS,8R)-8-fluoro-5-(4-(trifluoromethyl)phenyl)-6,6a,7,8,9,10-hexahydro-5H-pyrido[1,2-a]quinoxaline-8-carboxylic acid]
< 1000 nM: EC50 ([1]; Homo sapiens, 144 h) | IC50 ([2]; Homo sapiens, HEK-293T, 24 h) | EC50 ([3]; Homo sapiens, 144 h)

C=CC(=O)NCC1CN(c2ccc(C(F)(F)F)cc2)c2ccccc2N1CC#N (stereo not drawn) [compound 3, N-((1-(cyanomethyl)-4-(4-(trifluoromethyl)phenyl)-1,2,3,4-tetrahydroquinoxalin-2-yl)methyl)acrylamide]
< 1000 nM: EC50 ([1]; Homo sapiens, 144 h) | IC50 ([2]; Homo sapiens, HEK-293T, 24 h) | EC50 ([3]; Homo sapiens, 144 h)

C=CC(=O)NCC1CN(c2ccc(C(F)(F)F)cc2)c2ccccc2N1CCC(N)=O (stereo not drawn) [compound 13, N-((1-(3-amino-3-oxopropyl)-4-(4-(trifluoromethyl)phenyl)-1,2,3,4-tetrahydroquinoxalin-2-yl)methyl)acrylamide]
< 1000 nM: EC50 ([1]; Homo sapiens, 144 h) | IC50 ([2]; Homo sapiens, HEK-293T, 24 h) | EC50 ([3]; Homo sapiens, 144 h)
